Results on 26 molecules are retold here after patent US8637501B2, “Azinone-substituted azepino[b]indole and pyrido-pyrrolo-azepine MCH-1 antagonists, methods of making, and use thereof” (Albany Molecular Research, Inc., priority 2009, dated 2014).

Where a name gives a salt, the structure may show the parent alone.

For the first data set, the target named is human MCH-1 receptor (Homo sapiens (Human), UniProt Q99705). Description: Binding Assay for Human Melanin-Concentrating Hormone (MCH-1) Receptor. The conditions noted are these: radioligand displacement, membranes from CHO-K1 cells expressing human MCH-1 receptor; Ki from IC50 by Cheng Prusoff equation; read-out: MCH1 Ki. How it is done: Binding Assay for Human Melanin-Concentrating Hormone (MCH-1) Receptor
human MCH-1 receptor, sequence (Q99705 whole entry): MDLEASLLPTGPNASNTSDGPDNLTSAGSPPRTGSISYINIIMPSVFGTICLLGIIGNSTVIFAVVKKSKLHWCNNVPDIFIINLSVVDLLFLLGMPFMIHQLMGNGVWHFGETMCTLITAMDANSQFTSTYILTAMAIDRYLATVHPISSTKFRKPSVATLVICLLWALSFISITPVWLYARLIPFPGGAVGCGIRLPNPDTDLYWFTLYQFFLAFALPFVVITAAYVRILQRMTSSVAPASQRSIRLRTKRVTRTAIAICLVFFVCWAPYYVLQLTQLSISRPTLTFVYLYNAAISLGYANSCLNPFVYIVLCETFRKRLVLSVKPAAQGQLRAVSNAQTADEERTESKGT
Evaluation of the affinity of compounds for the human MCH-1 receptor was accomplished using 4-(3,4,5-tritritiumbenzyloxy)-1-(1-(2-(pyrrolidin-1-yl)ethyl)-1H-indazol-5-yl)pyridin-2(1H)-one and membranes prepared from stable CHO-K1 cells expressing the human MCH-1 receptor obtained from Euroscreen (Batch 1138). Cell membrane homogenates (8.92 μg protein) were incubated for 60 min at 25° C. with 1.4 nM of the [^3H]-labeled compound in the absence or presence of the test compound in 50 mM Tris-HCl buffer, pH 7.4. Nonspecific binding was determined in the presence of 50 μM 1-(5-(4-cyanophenyl)bicyclo[3.1.0]hexan-2-yl)-3-(4-fluoro-3-(trifluoromethyl)phenyl)-1-(3-(4-methylpiperazin-1-yl)propyl)urea. Following incubation, the samples were filtered rapidly under vacuum through Skatron 11731 filters, pre-soaked in 0.5% polyethylenimine, and washed with ice-cold 50 mM Tris-HCl buffer, pH 7.4, (wash setting 9,9,0) using a Skatron cell harvester. The filters were counted for radioactivity in a liquid scintillation counter (Tri-Carb 2100TR, Packard) using a scintillation cocktail (Ultima Gold MV, Perkin Elmer).
The results are expressed as a percent inhibition of the control radioligand specific binding. The IC50 value (concentration causing a half-maximal inhibition of control specific binding) and Hill coefficient (nH) were determined by non-linear regression analysis of the competition curve using Hill equation curve fitting. The inhibition constant (Ki) was calculated from the Cheng Prusoff equation: (Ki=IC50/(1+(L/KD)), where L=concentration of radioligand in the assay, and KD=affinity of the radioligand for the receptor.
As usually defined, the Ki is the equilibrium dissociation constant of an inhibitor or competing ligand from its target. As for `CN1CCc2c(n(C)c3nc(-n4ccc(OCc5ccccc5)cc4=O)ccc23)CC1` [Example 88, 4-(Benzyloxy)-1-(7,10-dimethyl-5,6,7,8,9,10-hexahydropyrido[3′,2′:4,5]pyrrolo[2,3-d]azepin-2-yl)pyridin-2(1H)-one hydrochloride], the Ki worked out at 0.0087 µM.

`Cn1c2c(c3ccc(-n4ccc(OCc5ccc(F)cn5)cc4=O)nc31)CNCCC2` [Example 91, 4-((5-Fluoropyridin-2-yl)methoxy)-1-(10-methyl-5,6,7,8,9,10-hexahydropyrido[3′,2′:4,5]pyrrolo[3,2-c]azepin-2-yl)pyridin-2(1H)-one hydrochloride]: the Ki was 0.015 µM. For the molecule `Cn1c2c(c3ccc(-n4ccc(-c5ccc(C(F)(F)F)cn5)cc4=O)nc31)CNCCC2` [Example 92, 1-(10-methyl-5,6,7,8,9,10-hexahydropyrido[3′,2′:4,5]pyrrolo[3,2-c]azepin-2-yl)-4-(5-(trifluoromethyl)pyridine-2-yl)pyridin-2(1H)-one hydrochloride], the inhibitory constant (Ki) was found to be 0.02 µM. For the molecule `Cn1c2c(c3ccc(-n4ccc(OCc5ccc(Cl)cc5Cl)cc4=O)nc31)CNCCC2` [Example 93, 4-(2,4-Dichlorobenzyloxy)-1-(10-methyl-5,6,7,8,9,10-hexahydropyrido[3′,2′:4,5]pyrrolo[3,2-c]azepin-2-yl)pyridin-2(1H)-one hydrochloride], the inhibitory constant (Ki) was 0.026 µM.

For the molecule `Cn1c2c(c3ccc(-n4ccc(OCc5ccc(F)cc5F)cc4=O)nc31)CNCCC2` [Example 94, 4-(2,4-Difluorobenzyloxy)-1-(10-methyl-5,6,7,8,9,10-hexahydropyrido[3′,2′:4,5]pyrrolo[3,2-c]azepin-2-yl)pyridin-2(1H)-one hydrochloride], the Ki came out at 0.011 µM.

As to `Cn1c2c(c3ccc(-n4ccc(-c5ccc(C(F)(F)F)cc5)cc4=O)nc31)CNCCC2` [Example 95, 1-(10-methyl-5,6,7,8,9,10-hexahydropyrido[3′,2′:4,5]pyrrolo[3,2-c]azepin-2-yl)-4-(4-(trifluoromethyl)phenyl)pyridin-2(1H)-one hydrochloride], the inhibitory constant (Ki) came to 0.0078 µM. Regarding `Cn1c2c(c3ccc(-n4ccc(OCc5ccc(Cl)cc5F)cc4=O)nc31)CNCCC2` [Example 96, 4-(4-Chloro-2-fluorobenzyloxy)-1-(10-methyl-5,6,7,8,9,10-hexahydropyrido[3′,2′:4,5]pyrrolo[3,2-c]azepin-2-yl)pyridin-2(1H)-one hydrochloride], the Ki is 0.0092 µM. For `Cn1c2c(c3ccc(N4CCN(CCc5ccc(F)cc5)CC4=O)cc31)CCNCC2` [Example 97, 4-(4-Fluorophenethyl)-1-(6-methyl-1,2,3,4,5,6-hexahydroazepino[4,5-b]indol-8-yl)piperazin-2-one dihydrochloride], the Ki was 0.013 µM. In the case of `CN1CCc2c(n(C)c3cc(N4CCN(CCc5ccc(F)cc5)CC4=O)ccc23)CC1` [Example 98, 1-(3,6-Dimethyl-1,2,3,4,5,6-hexahydroazepino[4,5-b]indol-8-yl)-4-(4-fluorophenethyl)piperazin-2-one dihydrochloride], the inhibition constant (Ki) stood at 0.013 µM.

For the molecule `CCN1CCc2c(n(C)c3cc(N4CCN(CCc5ccc(F)cc5)CC4=O)ccc23)CC1` [Example 99, 1-(3-Ethyl-6-methyl-1,2,3,4,5,6-hexahydroazepino[4,5-b]indol-8-yl)-4-(4-fluorophenethyl)piperazin-2-one dihydrochloride], the Ki was 0.017 µM. Consider `Cn1c2c(c3ccc(-n4ccc(OCc5ccc(Cl)cc5)cc4=O)cc31)CCNCC2` [Example 100, 4-(4-Chlorobenzyloxy)-1-(6-methyl-1,2,3,4,5,6-hexahydroazepino[4,5-b]indol-8-yl)pyridin-2(1H)-one hydrochloride], for which the inhibition constant Ki worked out at 0.01 µM.

As to `Cn1c2c(c3ccc(-n4ccc(CCc5ccccc5)nc4=O)cc31)CCNCC2` [Example 101, 1-(6-Methyl-1,2,3,4,5,6-hexahydroazepino[4,5-b]indol-8-yl)-4-phenethylpyrimidin-2(1H)-one hydrochloride], the inhibition constant (Ki) was found to be 0.0099 µM. Still for that read-out and setting: the figure for `Cn1c2c(c3ccc(-n4ccc(OCc5ccc(F)cc5)cc4=O)cc31)CNCCC2` [Example 103, 4-(4-Fluorobenzyloxy)-1-(6-methyl-1,2,3,4,5,6-hexahydroazepino[4,3-b]indol-8-yl)pyridin-2(1H)-one hydrochloride] is 0.006 µM.

In the case of `Cn1c2c(c3ccc(-n4ccc(OCc5ccc(F)cn5)cc4=O)cc31)C(=O)NCCC2` [Example 104, 8-(4-((5-Fluoropyridin-2-yl)methoxy)-2-oxopyridin-1(2H)-yl)-6-methyl-2,3,4,5-tetrahydroazepino[4,3-b]indol-1(6H)-one], the inhibition constant Ki was 0.149 µM. Take `Cn1c2c(c3ccc(-n4ccc(OCc5ccc(Cl)cc5)cc4=O)cc31)CNCCC2` [Example 105, 4-(4-Chlorobenzyloxy)-1-(6-methyl-1,2,3,4,5,6-hexahydroazepino[4,3-b]indol-8-yl)pyridin-2(1H)-one hydrochloride]: the inhibitory constant (Ki) was 0.0076 µM. In the case of `Cn1c2c(c3ccc(-n4ccc(CCc5ccccc5)nc4=O)cc31)CNCCC2` [Example 107, 1-(6-Methyl-1,2,3,4,5,6-hexahydroazepino[4,3-b]indol-8-yl)-4-phenethylpyrimidin-2(1H)-one hydrochloride], the Ki was 0.0097 µM.

Consider `Cn1c2c(c3ccc(-n4ccc(-c5ccc(C(F)(F)F)nc5)nc4=O)cc31)CNCCC2` [Example 108, 1-(6-Methyl-1,2,3,4,5,6-hexahydroazepino[4,3-b]indol-8-yl)-4-(6-(trifluoromethyl)pyridin-3-yl)pyrimidin-2(1H)-one hydrochloride], for which the Ki amounted to 0.06 µM. As for `Cn1c2c(c3ccc(-n4ccc(OCc5ccc(Cl)cc5)cc4=O)nc31)CCNCC2` [Example 109, 4-(4-Chlorobenzyloxy)-1-(10-methyl-5,6,7,8,9,10-hexahydropyrido[3′,2′:4,5]pyrrolo[2,3-d]azepin-2-yl)pyridin-2(1H)-one hydrochloride], the Ki came out at 0.0096 µM.

On to `Cn1c2c(c3ccc(-n4ccc(OCc5ccc(F)cc5)cc4=O)nc31)CCNCC2` [Example 110, 4-(4-Fluorobenzyloxy)-1-(10-methyl-5,6,7,8,9,10-hexahydropyrido[3′,2′:4,5]pyrrolo[2,3-d]azepin-2-yl)pyridin-2(1H)-one hydrochloride], for which the inhibition constant (Ki) is 0.012 µM. Turning to `Cn1c2c(c3ccc(-n4ccc(OCc5ncc(F)cc5F)cc4=O)nc31)CCNCC2` [Example 111, 4-((3,5-Difluoropyridin-2-yl)methoxy)-1-(10-methyl-5,6,7,8,9,10-hexahydropyrido[3′,2′:4,5]pyrrolo[2,3-d]azepin-2-yl)pyridin-2(1H)-one hydrochloride], the Ki is 0.071 µM. Regarding `Cn1c2c(c3ccc(-n4ccc(OCc5ccc(F)cc5)cc4=O)nc31)CNCCC2` [Example 112, 4-(4-Fluorobenzyloxy)-1-(10-methyl-5,6,7,8,9,10-hexahydropyrido[3′,2′:4,5]pyrrolo[3,2-c]azepin-2-yl)pyridin-2(1H)-one hydrochloride], the Ki came out at 0.0089 µM. For `Cn1c2c(c3ccc(-n4ccc(OCc5ccc(Cl)cc5)cc4=O)nc31)CNCCC2` [Example 113, 4-(4-Chlorobenzyloxy)-1-(10-methyl-5,6,7,8,9,10-hexahydropyrido[3′,2′:4,5]pyrrolo[3,2-c]azepin-2-yl)pyridin-2(1H)-one hydrochloride], the inhibitory constant (Ki) stood at 0.0059 µM. The same measure, in the same setting: under `Cn1c2c(c3ccc(-n4ccc(OCc5ncc(F)cc5F)cc4=O)nc31)CNCCC2` [Example 114, 4-((3,5-Difluoropyridin-2-yl)methoxy)-1-(10-methyl-5,6,7,8,9,10-hexahydropyrido[3′,2′:4,5]pyrrolo[3,2-c]azepin-2-yl)pyridin-2(1H)-one hydrochloride] stands 0.044 µM.

System in another data set: not given
Test: not given
Conditions: not given
Broadly, the melting point is the temperature, or range, at which the solid turns liquid. Consider `Cn1c2c(c3ccc(-n4ccc(-c5ccc(C(F)(F)F)cn5)cc4=O)cc31)CCNCC2` (as salt: hydrochloride) [Example 3, 1-(6-Methyl-1,2,3,4,5,6-hexahydroazepino[4,5-b]indol-8-yl)-4-(5-(trifluoromethyl)pyridin-2-yl)pyridin-2(1H)-one dihydrochloride], for which the melting point lay within 310 to 312 °C. `Cn1c2c(c3ccc(-n4ccc(OCc5ccc(C(F)(F)F)nc5)cc4=O)cc31)CCNCC2` (as salt: hydrochloride) [Example 5, 1-(6-Methyl-1,2,3,4,5,6-hexahydroazepino[4,5-b]indol-8-yl)-4-((6-(trifluoromethyl)pyridin-3-yl)methoxy)pyridin-2(1H)-one dihydrochloride] returned a melting point of 296 to 300 °C. Regarding `O=c1cc(-c2ccc(C(F)(F)F)cn2)ccn1-c1ccc2c3c([nH]c2c1)CCNCC3` (as salt: hydrochloride) [Example 9, 1-(1,2,3,4,5,6-Hexahydroazepino[4,5-b]indol-8-yl)-4-(5-(trifluoromethyl)pyridin-2-yl)pyridin-2(1H)-one dihydrochloride], the melting point fell in the range of 288 to 290 °C.
